# Experimental data taken from patent publication US4194006A, “Therapeutic application of acetyl-d,l-carnitine and other acyl derivatives of d,l-carnitine” (priority 1977, dated 1980).
# Like-named read-outs stand apart in the source and are kept apart here.
# Assays:
# isolated rabbit hearts [1] = experiment: cardiokinetic effect on isolated heart (Langendorff): contractile force after anoxia, positive inotropic effect; conditions: 10 minutes from interruption of anoxic period
# Outline: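 Rabbit hearts were perfused Langendorff-style with oxygenated Ringer at 38.2 °C. Anoxia was applied until contractile force dropped by 80%, then the hearts were reoxygenated with or without compound. Contractile force was expressed as a percentage 10 min after the anoxic period ended.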
# isolated rat atrium = experiment: antiarrhythmic effect, isolated rat atrium method of M. Libonati and G. Segre; conditions: Rattus norvegicus
# in vivo = conditions: mouse, in vivo, iv
# Source text: The tolerance of acetyl-d,l-carnitine and of the other aforementioned acyl derivatives of the formula (I), as well as their salts were investigated by comparing the LD50 obtained by administering the compounds intravenously in mice with the LD50 obtained under the same experimental conditions by intravenous injection of d,l-carnitine.
# isolated rabbit hearts [2] = experiment: coronary vasodilator effect: coronary flow, isolated heart (Langendorff)
# Outline: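 Langendorff-perfused isolated rabbit hearts in oxygenated Ringer at 38.2° C; anoxia imposed until contractile force fell by 80%, then reoxygenated with or without test compound. Coronary flow, isometric contraction and ECG recorded by polygraph.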
# female rats = experiment: antifatigue effect: rota-rod; format: in vivo, rat; conditions: Rattus norvegicus, ip, 0.25 h; for responders at 100 mg/kg: read-out: percentage of animals staying on the rota-rod more than 180 seconds, 100 mg/kg i.p.; for responders at 200 mg/kg: read-out: percentage of animals staying on the rota-rod more than 180 seconds, 200 mg/kg i.p.; for responders at 400 mg/kg: read-out: percentage of animals staying on the rota-rod more than 180 seconds, 400 mg/kg i.p.; for responders at 600 mg/kg: read-out: percentage of animals staying on the rota-rod more than 180 seconds, 600 mg/kg i.p.
# Outline: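 Female rats dosed intraperitoneally in saline, with controls given saline alone. Every 15 min after treatment animals were placed on a 6 cm rod rotating at 16 r.p.m. Value is the percentage of animals staying on the rod for more than 180 s, per session.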
# [3] = read-out: Mean percent variation versus controls: excitability (-%)
# [4] = read-out: Mean percent variation versus controls: frequency max (-%)
# [5] = read-out: Mean percent variation versus controls: refractory period (+%)
# [6] = read-out: Mean percent variation versus controls: rheobase (+%)
# [7] = session 6 (every 15 minutes), * p < 0.05
smiles,measurement,setting,value
"CC(=O)OC(CC(=O)[O-])C[N+](C)(C)C (racemic) [acetyl-d,l-carnitine]","Contractile force, Mean ± S.E.",isolated rabbit hearts [1]; 1·10^-5 g/lt,77.5 ± 3.29%
same,"Contractile force, Mean ± S.E.",isolated rabbit hearts [1]; 1·10^-6 g/lt,32.5 ± 4.38%
same,"Contractile force, Mean ± S.E.",isolated rabbit hearts [1]; 5·10^-6 g/lt,42.9 ± 6.22%
same,inhibition at 0.001 µg/mL,isolated rat atrium; [3],7.18%
same,inhibition at 0.01 µg/mL,isolated rat atrium; [3],18.6%
same,inhibition at 0.1 µg/mL,isolated rat atrium; [3],71%
same,inhibition at 0.001 µg/mL,isolated rat atrium; [4],6.08%
same,inhibition at 0.01 µg/mL,isolated rat atrium; [4],15%
same,inhibition at 0.1 µg/mL,isolated rat atrium; [4],23.6%
same,activation at 0.001 µg/mL,isolated rat atrium; [5],14.5%
same,activation at 0.01 µg/mL,isolated rat atrium; [5],16.8%
same,activation at 0.1 µg/mL,isolated rat atrium; [5],27.4%
same,activation at 0.001 µg/mL,isolated rat atrium; [6],3.32%
same,activation at 0.01 µg/mL,isolated rat atrium; [6],15.3%
same,activation at 0.1 µg/mL,isolated rat atrium; [6],21.7%
same,LD50,in vivo,~770 mg/kg
same,"Coronary flow, Mean ± S.E.",isolated rabbit hearts [2]; 1·10^-5 g/lt,90.05 ± 7.10%
same,"Coronary flow, Mean ± S.E.",isolated rabbit hearts [2]; 1·10^-6 g/lt,75.80 ± 5.92%
same,"Coronary flow, Mean ± S.E.",isolated rabbit hearts [2]; 5·10^-6 g/lt,76.30 ± 11.9%
same,responders at 100 mg/kg,female rats; session 1 (every 15 minutes),0%
same,responders at 100 mg/kg,female rats; session 2 (every 15 minutes),0%
same,responders at 100 mg/kg,female rats; session 3 (every 15 minutes),0%
same,responders at 100 mg/kg,female rats; session 4 (every 15 minutes),0%
same,responders at 100 mg/kg,female rats; session 5 (every 15 minutes),0%
same,responders at 100 mg/kg,female rats; session 6 (every 15 minutes),10%
same,responders at 200 mg/kg,female rats; session 1 (every 15 minutes),0%
same,responders at 200 mg/kg,female rats; session 2 (every 15 minutes),0%
same,responders at 200 mg/kg,female rats; session 3 (every 15 minutes),0%
same,responders at 200 mg/kg,female rats; session 4 (every 15 minutes),30%
same,responders at 200 mg/kg,"female rats; session 5 (every 15 minutes), * p < 0.05",50%
same,responders at 200 mg/kg,female rats; [7],50%
same,responders at 400 mg/kg,female rats; session 1 (every 15 minutes),0%
same,responders at 400 mg/kg,female rats; session 2 (every 15 minutes),10%
same,responders at 400 mg/kg,female rats; session 3 (every 15 minutes),10%
same,responders at 400 mg/kg,female rats; session 4 (every 15 minutes),10%
same,responders at 400 mg/kg,female rats; session 5 (every 15 minutes),40%
same,responders at 400 mg/kg,female rats; [7],50%
same,responders at 600 mg/kg,female rats; session 1 (every 15 minutes),0%
same,responders at 600 mg/kg,female rats; session 2 (every 15 minutes),0%
same,responders at 600 mg/kg,female rats; session 3 (every 15 minutes),10%
same,responders at 600 mg/kg,female rats; session 4 (every 15 minutes),20%
same,responders at 600 mg/kg,female rats; session 5 (every 15 minutes),40%
same,responders at 600 mg/kg,female rats; [7],50%
